Data on twelve compounds can be found in patent publication US20160122386A1, “V1A RECEPTOR AGONISTS” (FERRING B.V., priority 2014, published 2016).

Starred links: 1 amine or outer side, 2 acyl side, 3 side chain; linkers in the order of their positions; H or OH if unused. Positions of bridges follow the written chain, without caps; N, C: chain ends. Non-standard residues stand in square brackets, D forms with d. Residues, ends and D or L forms follow the SMILES beside them. Chains are numbered I, II in the order given. *: point of attachment. d(isoGln) = NC(=O)[C@@H](CCC(=O)[*:2])N[*:1]; isoGln = NC(=O)[C@H](CCC(=O)[*:2])N[*:1]; d(εLys) = N[C@H](CCCCN[*:1])C(=O)[*:2]; εLys = N[C@@H](CCCCN[*:1])C(=O)[*:2]; Aad = N[C@@H](CCCC(=O)O)C(=O)O; Cit = NC(=O)NCCC[C@H](N)C(=O)O; Dab = NCC[C@H](N)C(=O)O; PhAc = O=C(Cc1ccccc1)*

In this test the target is T1, human V1aR (Homo sapiens, UniProt P37288).
T1 construct: expressed in transfected cells
Nature of the test: Agonist activity at vasopressin V1a receptors, cell-based FLIPR calcium assay. To be noted: for Emax: read-out: Efficacy Avg. (%). The method, boiled down: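 HEK Flp-In cells stably expressing human V1aR were loaded with Calcium 4 dye plus 2.5 mM probenecid for 1 h at 37 °C, then given half-log compound concentrations (final 0.1% DMSO) on FLIPR Tetra.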

T1 sequence (P37288 whole entry): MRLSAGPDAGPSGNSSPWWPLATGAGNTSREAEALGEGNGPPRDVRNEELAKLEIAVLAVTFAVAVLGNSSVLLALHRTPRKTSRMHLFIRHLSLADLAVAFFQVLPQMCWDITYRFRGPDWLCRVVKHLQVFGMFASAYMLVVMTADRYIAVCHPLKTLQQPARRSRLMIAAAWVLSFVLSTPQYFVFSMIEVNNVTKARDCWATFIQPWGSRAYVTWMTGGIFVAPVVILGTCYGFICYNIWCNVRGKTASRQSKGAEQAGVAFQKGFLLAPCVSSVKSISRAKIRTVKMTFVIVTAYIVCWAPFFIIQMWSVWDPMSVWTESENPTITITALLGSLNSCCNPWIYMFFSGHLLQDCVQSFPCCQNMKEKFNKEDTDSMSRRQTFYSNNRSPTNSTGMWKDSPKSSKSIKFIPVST

What is called EC50 is the concentration that produces a half-maximal response. Regarding `CC[C@H](C)[C@@H]1NC(=O)[C@H](Cc2ccccc2)NC(=O)[C@@H](N)CSSC[C@@H](C(=O)N2CCC[C@H]2C(=O)N[C@@H](CCCNCCCCCNC(=O)CC[C@H](NC(=O)[C@H](CCCNC(=N)N)NC(=O)[C@@H]2CCCN2C(=O)[C@H](CCCNC(N)=O)NC(=O)[C@H](CC(N)=O)NC(=O)[C@H](CCC(N)=O)NC(=O)[C@H](CC(C)(C)C)NC(=O)[C@@H](Cc2ccc(OC)cc2)NC(=O)Cc2ccccc2)C(N)=O)C(=O)NCC(N)=O)NC(=O)[C@H](CC(N)=O)NC(=O)[C@H](CCC(N)=O)NC1=O` [Compound 46], the EC50 was 1.4 nM and the Emax stood at 62%. For `CC[C@H](C)[C@@H]1NC(=O)[C@H](Cc2ccccc2)NC(=O)[C@@H](N)CSSC[C@@H](C(=O)N2CCC[C@H]2C(=O)N[C@@H](CCNC(=O)[C@@H](N)CCCCNC(=O)CC[C@H](NC(=O)[C@H](CCCNC(=N)N)NC(=O)[C@@H]2CCCN2C(=O)[C@H](CCCNC(N)=O)NC(=O)[C@H](CC(N)=O)NC(=O)[C@H](CCC(N)=O)NC(=O)[C@H](Cc2ccccc2)NC(=O)[C@@H](Cc2ccc(OC)cc2)NC(=O)Cc2ccccc2)C(N)=O)C(=O)NCC(N)=O)NC(=O)[C@H](CC(N)=O)NC(=O)[C@H](CCCC(N)=O)NC1=O` [Compound 47] (I: H-CFI[Aad](NH2)NCP[Dab]G-NH2 / II: PhAc-[dY](Me)FQN[Cit]PR[isoGln][εLys]; disulfide I:1-I:6 (inferred); amide I:8-II:C (inferred)) the same measures were 1.8 nM and 45%. As for `CC[C@H](C)[C@@H]1NC(=O)[C@H](Cc2ccccc2)NC(=O)[C@@H](O)CSSC[C@@H](C(=O)N2CCC[C@H]2C(=O)N[C@@H](CCNC(=O)[C@@H](N)CCCCNC(=O)CC[C@H](NC(=O)[C@H](CCCNC(=N)N)NC(=O)[C@@H]2CCCN2C(=O)[C@H](CCCNC(N)=O)NC(=O)[C@H](CC(N)=O)NC(=O)[C@H](CCC(N)=O)NC(=O)[C@H](Cc2ccccc2)NC(=O)[C@@H](Cc2ccc(OC)cc2)NC(=O)Cc2ccccc2)C(N)=O)C(=O)NCC(N)=O)NC(=O)[C@H](CC(N)=O)NC(=O)[C@H](CCCC(N)=O)NC1=O` [Compound 48], the EC50 was found to be 1.4 nM and the Emax amounted to 67%. In the same order, the values of `CC[C@H](C)[C@@H]1NC(=O)[C@H](Cc2ccccc2)NC(=O)[C@@H](N)CSSC[C@@H](C(=O)N2CCC[C@H]2C(=O)N[C@@H](CCNC(=O)[C@H](N)CCCCNC(=O)CC[C@H](NC(=O)[C@H](CCCNC(=N)N)NC(=O)[C@@H]2CCCN2C(=O)[C@H](CCCNC(N)=O)NC(=O)[C@H](CC(N)=O)NC(=O)[C@H](CCC(N)=O)NC(=O)[C@H](Cc2ccccc2)NC(=O)[C@@H](Cc2ccc(OC)cc2)NC(=O)Cc2ccccc2)C(N)=O)C(=O)NCC(N)=O)NC(=O)[C@H](CC(N)=O)NC(=O)[C@H](CCC(N)=O)NC1=O` [Compound 49] (I: H-CFIQNCP[Dab]G-NH2 / II: PhAc-[dY](Me)FQN[Cit]PR[isoGln][d(εLys)]; disulfide I:1-I:6; amide I:8-II:C) are 0.76 nM and 55%.

For the compound `CC[C@H](C)[C@@H]1NC(=O)[C@H](Cc2ccccc2)NC(=O)[C@@H](N)CSSC[C@@H](C(=O)N2CCC[C@H]2C(=O)N[C@@H](CCNC(=O)[C@@H](N)CCCCNC(=O)CC[C@H](NC(=O)[C@H](CCCNC(=N)N)NC(=O)[C@@H]2CCCN2C(=O)[C@H](C)NC(=O)[C@H](CC(N)=O)NC(=O)[C@H](CCC(N)=O)NC(=O)[C@H](Cc2ccccc2)NC(=O)[C@@H](Cc2ccc(OC)cc2)NC(=O)Cc2ccccc2)C(N)=O)C(=O)NCC(N)=O)NC(=O)[C@H](CC(N)=O)NC(=O)[C@H](CCCC(N)=O)NC1=O` [Compound 50] (I: H-CFI[Aad](NH2)NCP[Dab]G-NH2 / II: PhAc-[dY](Me)FQNAPR[isoGln][εLys]; disulfide I:1-I:6; amide I:8-II:C), the concentration giving a half-maximal response (EC50) is 0.9 nM and the Emax was 40%. For `CC[C@H](C)[C@@H]1NC(=O)[C@H](Cc2ccccc2)NC(=O)[C@@H](N)CSSC[C@@H](C(=O)N2CCC[C@H]2C(=O)N[C@@H](CCNC(=O)[C@H](N)CCCCNC(=O)CC[C@H](NC(=O)[C@H](CCCNC(=N)N)NC(=O)[C@@H]2CCCN2C(=O)[C@H](C)NC(=O)[C@H](CC(N)=O)NC(=O)[C@H](CCC(N)=O)NC(=O)[C@H](Cc2ccccc2)NC(=O)[C@@H](Cc2ccc(OC)cc2)NC(=O)Cc2ccccc2)C(N)=O)C(=O)NCC(N)=O)NC(=O)[C@H](CC(N)=O)NC(=O)[C@H](CCCC(N)=O)NC1=O` [Compound 51] (I: H-CFI[Aad](NH2)NCP[Dab]G-NH2 / II: PhAc-[dY](Me)FQNAPR[isoGln][d(εLys)]; disulfide I:1-I:6; amide I:8-II:C), the EC50 amounted to 1.4 nM and the Emax was determined as 43%. For `CC[C@H](C)[C@@H]1NC(=O)[C@H](Cc2ccccc2)NC(=O)[C@@H](N)CSSC[C@@H](C(=O)N2CCC[C@H]2C(=O)N[C@@H](CCNC(=O)[C@H](N)CCCCNC(=O)CC[C@H](NC(=O)[C@H](CCCNC(=N)N)NC(=O)[C@@H]2CCCN2C(=O)[C@H](CCCNC(N)=O)NC(=O)[C@H](CC(N)=O)NC(=O)[C@H](CCC(N)=O)NC(=O)[C@H](Cc2ccccc2)NC(=O)[C@@H](Cc2ccc(OC)cc2)NC(=O)Cc2ccccc2)C(N)=O)C(=O)NCC(N)=O)NC(=O)[C@H](CC(N)=O)NC(=O)[C@H](CCCC(N)=O)NC1=O` [Compound 52] (I: H-CFI[Aad](NH2)NCP[Dab]G-NH2 / II: PhAc-[dY](Me)FQN[Cit]PR[isoGln][d(εLys)]; disulfide I:1-I:6; amide I:8-II:C) the same measures were 1.5 nM and 47%. For `CC[C@H](C)[C@@H]1NC(=O)[C@H](Cc2ccccc2)NC(=O)[C@@H](N)CSSC[C@@H](C(=O)N2CCC[C@H]2C(=O)N[C@@H](CCNC(=O)[C@@H](N)CCCCNC(=O)CC[C@@H](NC(=O)[C@H](CCCNC(=N)N)NC(=O)[C@@H]2CCCN2C(=O)[C@H](C)NC(=O)[C@H](CC(N)=O)NC(=O)[C@H](CCC(N)=O)NC(=O)[C@H](Cc2ccccc2)NC(=O)[C@@H](Cc2ccc(OC)cc2)NC(=O)Cc2ccccc2)C(N)=O)C(=O)NCC(N)=O)NC(=O)[C@H](CC(N)=O)NC(=O)[C@H](CCCC(N)=O)NC1=O` [Compound 53] (I: H-CFI[Aad](NH2)NCP[Dab]G-NH2 / II: PhAc-[dY](Me)FQNAPR[d(isoGln)][εLys]; disulfide I:1-I:6; amide I:8-II:C) the same measures were 1.7 nM and 43%.

As to `CC[C@H](C)[C@@H]1NC(=O)[C@H](Cc2ccccc2)NC(=O)[C@@H](N)CSSC[C@@H](C(=O)N2CCC[C@H]2C(=O)N[C@@H](CCNC(=O)[C@@H](N)CCCCNC(=O)CC[C@@H](NC(=O)[C@H](CCCNC(=N)N)NC(=O)[C@@H]2CCCN2C(=O)[C@H](C)NC(=O)[C@H](CC(N)=O)NC(=O)[C@H](CCC(N)=O)NC(=O)[C@H](Cc2ccccc2)NC(=O)[C@@H](Cc2ccc(OC)cc2)NC(=O)Cc2ccccc2)C(N)=O)C(=O)NCC(N)=O)NC(=O)[C@H](CC(N)=O)NC(=O)[C@H](CCC(N)=O)NC1=O` [Compound 54] (I: H-CFIQNCP[Dab]G-NH2 / II: PhAc-[dY](Me)FQNAPR[d(isoGln)][εLys]; disulfide I:1-I:6; amide I:8-II:C), the half-maximal effective concentration (EC50) was 1.4 nM and the Emax came to 51%. Regarding `CC[C@H](C)[C@@H]1NC(=O)[C@H](Cc2ccccc2)NC(=O)[C@@H](N)CSSC[C@@H](C(=O)N2CCC[C@H]2C(=O)N[C@@H](CCNC(=O)[C@H](N)CCCCNC(=O)CC[C@@H](NC(=O)[C@H](CCCNC(=N)N)NC(=O)[C@@H]2CCCN2C(=O)[C@H](CCCNC(N)=O)NC(=O)[C@H](CC(N)=O)NC(=O)[C@H](CCC(N)=O)NC(=O)[C@H](Cc2ccccc2)NC(=O)[C@@H](Cc2ccc(OC)cc2)NC(=O)Cc2ccccc2)C(N)=O)C(=O)NCC(N)=O)NC(=O)[C@H](CC(N)=O)NC(=O)[C@H](CCC(N)=O)NC1=O` [Compound 55] (I: H-CFIQNCP[Dab]G-NH2 / II: PhAc-[dY](Me)FQN[Cit]PR[d(isoGln)][d(εLys)]; disulfide I:1-I:6; amide I:8-II:C), the Emax worked out at 56%. On to `CC[C@H](C)[C@@H]1NC(=O)[C@H](Cc2ccccc2)NC(=O)[C@@H](N)CSSC[C@@H](C(=O)N2CCC[C@H]2C(=O)N[C@@H](CCNC(=O)[C@H](N)CCCCNC(=O)CC[C@@H](NC(=O)[C@H](CCCNC(=N)N)NC(=O)[C@@H]2CCCN2C(=O)[C@H](C)NC(=O)[C@H](CC(N)=O)NC(=O)[C@H](CCC(N)=O)NC(=O)[C@H](Cc2ccccc2)NC(=O)[C@@H](Cc2ccc(OC)cc2)NC(=O)Cc2ccccc2)C(N)=O)C(=O)NCC(N)=O)NC(=O)[C@H](CC(N)=O)NC(=O)[C@H](CCC(N)=O)NC1=O` [Compound 56] (I: H-CFIQNCP[Dab]G-NH2 / II: PhAc-[dY](Me)FQNAPR[d(isoGln)][d(εLys)]; disulfide I:1-I:6; amide I:8-II:C), for which the EC50 came to 1.8 nM and the Emax was 60%.

As for `CC[C@H](C)[C@@H]1NC(=O)[C@H](Cc2ccccc2)NC(=O)[C@@H](N)CSSC[C@@H](C(=O)N2CCC[C@H]2C(=O)N[C@@H](CCNC(=O)[C@@H](N)CCCCNC(=O)CC[C@@H](NC(=O)[C@H](CCCNC(=N)N)NC(=O)[C@@H]2CCCN2C(=O)[C@H](CCCNC(N)=O)NC(=O)[C@H](CC(N)=O)NC(=O)[C@H](CCC(N)=O)NC(=O)[C@H](Cc2ccccc2)NC(=O)[C@@H](Cc2ccc(OC)cc2)NC(=O)Cc2ccccc2)C(N)=O)C(=O)NCC(N)=O)NC(=O)[C@H](CC(N)=O)NC(=O)[C@H](CCC(N)=O)NC1=O` [Compound 57] (I: H-CFIQNCP[Dab]G-NH2 / II: PhAc-[dY](Me)FQN[Cit]PR[d(isoGln)][εLys]; disulfide I:1-I:6; amide I:8-II:C), the EC50 came out at 1.4 nM and the Emax was 63%.
